The source of these data is patent US10583154B2, “Multi-dose compositions containing an antimicrobial polyamide or octenidine preservative” (priority 2016, dated 2020).

For data set [1] the following is noted: in vivo, iv.
In another data set the test system is Aspergillus niger. Conditions: cited from earlier work.
For the next data set, the system named is Pseudomonas aeruginosa. The settings on record: cited from earlier work.
In a further data set the test system is Candida albicans. The settings on record: cited from earlier work.
The next data set has as its system Staphylococcus aureus. The settings on record: cited from earlier work.
In the next data set the test system is E. coli. Conditions: cited from earlier work.

“4,4′-trimethylene dipiperidine bispropanoic acid-co-1,3-diamino propane” had a maximum tolerated dose in data set [1] of approximately 40 mg/kg.
For `C[CH2][Hg][S]c1ccccc1C(=O)[O-].[Na+]` [thimerosal], the “Minimum Inhibitory Concentration (MIC)” value was 128 mg/L with Aspergillus niger; 4 to 8 mg/L in the data set with Pseudomonas aeruginosa; 32 mg/L in the data set on Candida albicans; 0.2 mg/L in the data set on Staphylococcus aureus; 4 to 8 mg/L in the data set on E. coli.
